Here are results for one compound from ChEMBL document CHEMBL5728775, “Pyridinone derivatives and their use as selective ALK-2 inhibitors” (2021).

Assay [1] has as its target Bone morphogenetic protein receptor type-1B (Homo sapiens, UniProt O00238). Description: In Vitro Enzyme Inhibition Using a Biochemical Peptide Phosphorylation Assay- Caliper Assay: Example 54:The assays were performed in 384-well, low volume microtiter assay plates in a final reaction volume of 9 ul. Dose-response curves were generated by incubating 10 nM of each kinase together with 2 uM of the fluorescently labeled substrate peptide 5-Fluo-Ahx-KKYQAEEN-T-YDEYENKK-amid (10 mM stock ….

Assay [2] addresses Bone morphogenetic protein receptor type-1A (Homo sapiens, UniProt P36894). Description: Luminescence-Based ADPGlo Kinase Activity Assay: Example 53: The assays were performed in 384-well, low volume microtiter assay plates in a final reaction volume of 6 ul. Dose-response curves were generated by incubating 10 nM of each kinase in 50 mM Hepes pH 7.5, 0.02% Tween 20, 0.02% BSA, 1 mM DTT, 10 uM Na3VO4, 10 mM ß-Glycerolphosphate, 1 mM MgCl2, 12 mM MnCl2 and 15 uM ATP for 60 min at 32° ….
Description: The amount of generated ADP is a measure of kinase activity and is quantified using the ADP-Glo Kinase Assay (Promega) according to manufacturer's instructions. ADP is converted to ATP by adding 3 ul of ADP-Glo Reagent and incubation at 32° C. for 60 min. ATP is subsequently converted into a bioluminescent signal by adding 6 ul luciferase assay reagents (Kinase detection buffer+Kinase Detection Substrate (Promega)) and further incubation at 32° C. for 60 min. […] The luminescent signal positively correlates with kinase activity.

The target of assay [3] is Activin receptor type-1-like (Homo sapiens, UniProt P37023). Description: (§1) In Vitro Enzyme Inhibition Using a Biochemical Peptide Phosphorylation Assay- Caliper Assay: Example 54:The assays were performed in 384-well, low volume microtiter assay plates in a final reaction volume of 9 ul.
Sequence of Activin receptor type-1-like (P37023 whole entry): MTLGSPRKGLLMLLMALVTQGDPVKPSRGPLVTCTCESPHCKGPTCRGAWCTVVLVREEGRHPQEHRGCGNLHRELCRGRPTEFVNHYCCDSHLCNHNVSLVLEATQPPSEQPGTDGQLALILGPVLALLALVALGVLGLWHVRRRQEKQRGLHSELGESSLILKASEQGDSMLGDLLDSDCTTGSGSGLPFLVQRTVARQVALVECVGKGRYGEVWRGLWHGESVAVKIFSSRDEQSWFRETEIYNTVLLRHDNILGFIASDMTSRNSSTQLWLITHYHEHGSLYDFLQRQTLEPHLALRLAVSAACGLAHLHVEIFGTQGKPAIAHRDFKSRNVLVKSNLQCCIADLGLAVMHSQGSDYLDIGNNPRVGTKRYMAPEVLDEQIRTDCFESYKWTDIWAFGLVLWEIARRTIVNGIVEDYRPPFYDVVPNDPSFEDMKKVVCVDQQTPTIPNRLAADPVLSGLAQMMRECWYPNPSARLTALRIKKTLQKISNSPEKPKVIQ
Assay [4] has as its target T1, Activin receptor type-1 (Homo sapiens, UniProt Q04771).
T1 sequence (Q04771 whole entry): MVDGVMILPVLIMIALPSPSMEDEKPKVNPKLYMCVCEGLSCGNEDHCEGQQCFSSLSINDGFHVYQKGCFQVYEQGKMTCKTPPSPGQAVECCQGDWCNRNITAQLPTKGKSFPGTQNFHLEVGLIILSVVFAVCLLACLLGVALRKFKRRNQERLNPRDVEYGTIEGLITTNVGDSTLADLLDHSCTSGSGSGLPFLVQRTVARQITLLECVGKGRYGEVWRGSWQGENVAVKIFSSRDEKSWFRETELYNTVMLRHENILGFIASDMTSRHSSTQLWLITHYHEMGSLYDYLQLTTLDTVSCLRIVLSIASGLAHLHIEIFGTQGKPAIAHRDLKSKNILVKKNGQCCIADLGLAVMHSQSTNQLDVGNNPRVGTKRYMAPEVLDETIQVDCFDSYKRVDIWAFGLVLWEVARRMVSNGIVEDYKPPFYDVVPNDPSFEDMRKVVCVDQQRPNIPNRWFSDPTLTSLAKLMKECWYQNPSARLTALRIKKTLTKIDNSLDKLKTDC
Described as §1.

For the next assay, the target named is T2, TGF-beta receptor type-1 (Homo sapiens, UniProt P36897).
T2 sequence (P36897 whole entry): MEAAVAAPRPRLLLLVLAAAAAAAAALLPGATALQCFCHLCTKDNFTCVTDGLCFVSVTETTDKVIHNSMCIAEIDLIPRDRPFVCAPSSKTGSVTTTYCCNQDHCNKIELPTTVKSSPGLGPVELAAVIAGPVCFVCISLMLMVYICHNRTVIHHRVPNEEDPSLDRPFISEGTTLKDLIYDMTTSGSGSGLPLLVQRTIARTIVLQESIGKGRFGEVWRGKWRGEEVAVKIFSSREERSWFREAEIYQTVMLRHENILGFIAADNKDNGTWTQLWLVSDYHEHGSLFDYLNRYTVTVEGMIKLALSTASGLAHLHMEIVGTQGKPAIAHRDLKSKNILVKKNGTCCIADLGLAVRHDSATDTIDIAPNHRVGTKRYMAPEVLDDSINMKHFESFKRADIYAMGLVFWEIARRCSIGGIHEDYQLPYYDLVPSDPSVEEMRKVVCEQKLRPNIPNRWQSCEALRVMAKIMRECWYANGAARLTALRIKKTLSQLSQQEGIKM
Described as §1.

Assay [5] concerns the target T1, Activin receptor type-1. Description: Luminescence-Based ADPGlo Kinase Activity Assay: Example 53: The assays were performed in 384-well, low volume microtiter assay plates in a final reaction volume of 6 ul. Dose-response curves were generated by incubating 10 nM of each kinase in 50 mM Hepes pH 7.5, 0.02% Tween 20, 0.02% BSA, 1 mM DTT, 10 uM Na3VO4, 10 mM ß-Glycerolphosphate, 1 mM MgCl2, 12 mM MnCl2 and 15 uM ATP for 60 min at 32° C. in the presence or absence of compound diluted in DMS. The amount of generated ADP is a measure of kinase activity and is quantified using the ADP-Glo Kinase Assay (Promega) according to manufacturer's instructions. […] and incubation at 32° C. for 60 min. ATP is subsequently converted into a bioluminescent signal by adding 6 ul luciferase assay reagents (Kinase detection buffer+Kinase Detection Substrate (Promega)) and further incubation at 32° C. for 60 min. For the measurement of luminescence a PHERAstar Multilabel Reader was used at a measurement interval time of 0.1 second (optical module for luminescence measurements in the 230 nm to 750 nm wavelength range). The luminescent signal positively correlates with kinase activity. On the technique in general: ADP-Glo first removes unused ATP, then detects ADP through luciferase.

Sequence of Bone morphogenetic protein receptor type-1B (O00238 whole entry): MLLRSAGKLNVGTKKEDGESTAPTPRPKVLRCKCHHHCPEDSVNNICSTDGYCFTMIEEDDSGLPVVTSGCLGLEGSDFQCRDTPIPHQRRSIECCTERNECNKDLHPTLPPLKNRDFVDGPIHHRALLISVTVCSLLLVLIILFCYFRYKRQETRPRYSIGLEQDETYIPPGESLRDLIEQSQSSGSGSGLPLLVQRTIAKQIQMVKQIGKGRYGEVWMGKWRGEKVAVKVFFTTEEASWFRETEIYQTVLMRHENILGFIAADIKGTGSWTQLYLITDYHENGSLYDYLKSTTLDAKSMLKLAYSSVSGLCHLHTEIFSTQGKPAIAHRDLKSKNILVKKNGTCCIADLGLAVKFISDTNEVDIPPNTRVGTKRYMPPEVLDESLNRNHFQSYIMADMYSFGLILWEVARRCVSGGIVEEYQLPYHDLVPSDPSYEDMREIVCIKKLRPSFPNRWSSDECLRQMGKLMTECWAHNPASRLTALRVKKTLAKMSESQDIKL
Sequence of Bone morphogenetic protein receptor type-1A (P36894 whole entry): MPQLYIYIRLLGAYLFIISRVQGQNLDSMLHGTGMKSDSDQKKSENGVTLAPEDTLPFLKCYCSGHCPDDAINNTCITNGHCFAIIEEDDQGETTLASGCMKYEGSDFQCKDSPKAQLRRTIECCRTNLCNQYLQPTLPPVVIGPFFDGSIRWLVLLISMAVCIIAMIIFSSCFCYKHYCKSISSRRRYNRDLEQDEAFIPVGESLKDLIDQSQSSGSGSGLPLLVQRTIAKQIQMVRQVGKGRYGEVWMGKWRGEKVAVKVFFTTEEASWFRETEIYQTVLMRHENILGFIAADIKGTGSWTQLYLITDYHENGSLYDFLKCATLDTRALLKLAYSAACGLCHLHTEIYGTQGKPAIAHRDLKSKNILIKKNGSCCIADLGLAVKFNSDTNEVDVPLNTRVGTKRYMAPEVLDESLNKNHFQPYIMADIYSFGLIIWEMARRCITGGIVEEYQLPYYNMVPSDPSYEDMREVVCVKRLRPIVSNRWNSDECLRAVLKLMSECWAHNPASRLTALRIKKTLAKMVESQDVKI

On to `CC(C)CN1c2ccc(-c3cncc(-c4ccc(=O)n(C(C)C)c4)c3)cc2CS1(=O)=O`, for which the IC50 in assay [1] is 1200 nM; in assay [2], 930 nM; in assay [3], 690 nM; on Activin receptor type-1 [4], 160 nM; on TGF-beta receptor type-1, 2400 nM; at Activin receptor type-1 [5] it was 110 nM.

By IC50 is commonly meant the concentration needed to halve the response being measured.
